# Results as given in patent US20180024136A1, “Development of ABCG2-Sensitive Fluorescent Probe For Isolation of ABCG2low Neural Stem/Progenitor Cells” (National University of Singapore, priority 2015, published 2018).
# Experiment: Spectroscopic properties of CF library (absorbance, emission, quantum yield, extinction coefficient)
# Format: physicochemical
# Conditions: 100 μM in ethanol; for QY (Φ): reference fluorescein
# Experimental: All the chemicals and solvents were purchased from Sigma Aldrich, Alfa Aesar, Fluka, MERCK, Tocris or Acros, and used without further purification. Normal phase purifications were carried out using Merck Silica Gel 60 (particle size: 0.040-0.063 mm, 230-400 mesh). Analytical characterization was performed on a HPLC-MS (Agilent-1200 series) with a DAD detector and a single quadrupole mass spectrometer (6130 series) with an ESI probe. ^1H-NMR and ^13C-NMR spectra were recorded on Bruker Avance 300 MHz NMR spectrometers, and chemical shifts are expressed in parts per million (ppm) and coupling constants are reported as a J value in Hertz (Hz). High resolution mass spectrometry (HRMS) data was recorded on a Micro mass VG 7035 (Mass Spectrometry Laboratory at National University of Singapore (NUS)). Spectroscopic and quantum yield data were measured on spectroscopic measurements, performed on a fluorometer and UV/VIS instrument, Synergy 4 of Bioteck Company. The slit width was 1 nm for both excitation and emission, and the data analysis was performed using GraphPrism 5.0.
SMILES,Abs (nm),Em (nm),QY (Φ)
COCCN(CCOC)C(=O)c1ccc(-c2c3cc(Cl)c(=O)cc-3oc3cc(O)c(Cl)cc23)cc1 [CF-H3],520,553,0.82
CCCCNC(=O)c1ccc(-c2c3cc(Cl)c(=O)cc-3oc3cc(O)c(Cl)cc23)cc1 [CF-G7],520,559,0.41
CC(C)C(C)NC(=O)c1ccc(-c2c3cc(Cl)c(=O)cc-3oc3cc(O)c(Cl)cc23)cc1 (stereo not drawn) [CF-E6],520,557,0.29
O=C(NCCC(c1ccccc1)c1ccccc1)c1ccc(-c2c3cc(Cl)c(=O)cc-3oc3cc(O)c(Cl)cc23)cc1 [CF-D10],520,558,0.59
CCCCC(CC)COCCCNC(=O)c1ccc(-c2c3cc(Cl)c(=O)cc-3oc3cc(O)c(Cl)cc23)cc1 (stereo not drawn) [CF-B5],520,559,0.54
O=C(NCCCN1CCCC1=O)c1ccc(-c2c3cc(Cl)c(=O)cc-3oc3cc(O)c(Cl)cc23)cc1 [CF-D2],520,557,0.61
CCCN(CC1CC1)C(=O)c1ccc(-c2c3cc(Cl)c(=O)cc-3oc3cc(O)c(Cl)cc23)cc1 [CF-C6],520,554,0.58
CC1CCCCN1C(=O)c1ccc(-c2c3cc(Cl)c(=O)cc-3oc3cc(O)c(Cl)cc23)cc1 (stereo not drawn) [CF-H6],520,553,0.65
O=C(NC1CCCCCC1)c1ccc(-c2c3cc(Cl)c(=O)cc-3oc3cc(O)c(Cl)cc23)cc1 [CF-C9],520,558,0.50
COc1ccccc1CCNC(=O)c1ccc(-c2c3cc(Cl)c(=O)cc-3oc3cc(O)c(Cl)cc23)cc1 [CF-F8],520,559,0.34
CC1CCCCC1NC(=O)c1ccc(-c2c3cc(Cl)c(=O)cc-3oc3cc(O)c(Cl)cc23)cc1 (stereo not drawn) [CF-C7],520,558,0.42
O=C(NCc1c(F)cccc1F)c1ccc(-c2c3cc(Cl)c(=O)cc-3oc3cc(O)c(Cl)cc23)cc1 [CF-A7],520,560,0.58
CN(CCc1ccccc1)C(=O)c1ccc(-c2c3cc(Cl)c(=O)cc-3oc3cc(O)c(Cl)cc23)cc1 [CF-D4],520,555,0.69
O=C(NC1Cc2ccccc2C1)c1ccc(-c2c3cc(Cl)c(=O)cc-3oc3cc(O)c(Cl)cc23)cc1 [CF-D8],520,558,0.47

# Other lines, results leading:
Abs (nm),Em (nm),QY (Φ),SMILES
520,559,0.57,CC(C)NC(=O)c1ccc(-c2c3cc(Cl)c(=O)cc-3oc3cc(O)c(Cl)cc23)cc1 [CF-B8]
520,558,0.42,CCCCCCCCCCCCCCNC(=O)c1ccc(-c2c3cc(Cl)c(=O)cc-3oc3cc(O)c(Cl)cc23)cc1 [CF-A2]
520,557,0.38,CC(C)CC(C)NC(=O)c1ccc(-c2c3cc(Cl)c(=O)cc-3oc3cc(O)c(Cl)cc23)cc1 (stereo not drawn) [CF-H10]
520,552,0.32,CCCCCCCCCCCCCCCCCCN(C)C(=O)c1ccc(-c2c3cc(Cl)c(=O)cc-3oc3cc(O)c(Cl)cc23)cc1 [CF-H11]
520,557,0.63,O=C(NC1CCCCC1)c1ccc(-c2c3cc(Cl)c(=O)cc-3oc3cc(O)c(Cl)cc23)cc1 [CF-A9]
520,559,0.37,CCCCCCCCNC(=O)c1ccc(-c2c3cc(Cl)c(=O)cc-3oc3cc(O)c(Cl)cc23)cc1 [CF-C3]
